Source: patent US20050288347A1, “Certain triazole-based compounds, compositions, and uses thereof” (priority 2004, published 2005)
“Also recorded” adds a separate entry of the source.

System: protein kinase
Test: HTS ATP-utilizing enzyme assay, off-chip mobility-shift format (Caliper HTS 250)
Format: biochemical, human
Conditions: test compound 10 μM; active = activity greater than three-sigma from the mean of the predominately inactive population for that enzyme
How it was run: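 Single-point screen at 10 μM compound in HEPES pH 7.5 buffer with Triton X-100 and BSA, 2.5 h at 20–22 °C. Substrate-to-phosphopeptide ratio measured by off-chip microfluidic mobility shift; EDTA wells as 100% and DMSO wells as 0% control, hits called at three-sigma limits.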

SMILES | protein kinase against which the compound exhibits inhibitory activity (Table 3)
Cn1cnnc1SCc1csc(Cc2ccc(Cl)c(Cl)c2)n1 | GSK3-α
O=[N+]([O-])c1ccc(-c2nnc(CSc3nncn3-c3ccccn3)o2)cc1 | PDGFRR-α
NC(=O)CSc1nnc(-c2ccc(OC(F)(F)F)cc2)[nH]1 | AURORA-A; also recorded: GSK3-β; also recorded: DYRK2
Cc1ccc(CSc2nnc(CSc3nc(C)cc(C)n3)n2Cc2ccco2)cc1 | CDK2-cyclinA
COc1ccc(-c2nnc(SCc3nnc(-c4ccccc4)o3)n2C)cc1OC | GSK3-α; also recorded: CHEK2
N#Cc1ccccc1CSc1nnc(-c2ccc(OC(F)(F)F)cc2)[nH]1 | AURORA-A
Cc1ccc(-c2nnc(CSc3nnc(COc4ccccc4)n3-c3ccc(C)cc3)o2)cc1 | GSK3-α
Cc1ccc(NCc2nnc(SCc3nnc(-c4ccccc4)o3)n2CC2CCCO2)c(C)c1 (centres unmarked) | SYK
CC(C)(C)c1ccc(CSc2nnc(COc3ccc(Cl)cc3)n2-c2ccccc2)cc1 | SYK
COCCCn1c(SCc2ccc(Cl)cc2)nnc1-c1ccc(C(C)(C)C)cc1 | DAPK1
c1ccc(CSc2nnc(CCC3CCCC3)n2Cc2cccnc2)cc1 | GSK3-α
Clc1ccc(Cn2c(CCC3CCCC3)nnc2SCc2ccccc2)cc1Cl | GSK3-β; also recorded: AURORA-A; also recorded: c-TAK1
Cc1ccc(CCn2c(CCC3CCCC3)nnc2SCc2ccccc2)cc1 | AURORA-A; also recorded: c-TAK1
COc1cc(CSc2nnc[nH]2)c(OC)cc1CSc1nnc[nH]1 | CSK and LCK
Cc1ccc(-c2nnc(CSc3nnc(-c4ccc(S(=O)(=O)N5CCOCC5)cc4)n3C)o2)cc1 | GSK3-β; also recorded: GSK3-α
Clc1ccc(CSc2nnc(-c3ccncc3)n2Cc2ccco2)cc1 | MSK1 and MSK2 and AKT3
COCCCn1c(SCc2ccc(C(C)(C)C)cc2)nnc1-c1ccncc1 | DYRK2

SMILES | protein kinase against which the compound exhibits inhibitory activity (Table 3)
CC(C)(C)c1ccc(CSc2nnc(-c3ccncc3)n2Cc2ccco2)cc1 | MAPKAPK-2
O=C(O)c1ccc(CSc2nnc(-c3ccncc3)n2Cc2ccco2)cc1 | GSK3-α; also recorded: GSK3-β
O=C(O)c1ccc(CSc2nnc(-c3ccc(OC(F)(F)F)cc3)[nH]2)cc1 | FLT-3; also recorded: AURORA-A; also recorded: DYRK2
Cc1ccc(-n2c(SCc3ccc(C(=O)O)cc3)nnc2-c2ccc(Cl)cc2)cc1 | SYK
CCc1nnc(SCc2ccccc2)n1Cc1ccc(Cl)c(Cl)c1 | GSK3-α; also recorded: GSK3-β; also recorded: AURORA-A
COc1ccc(NCc2nnc(SCc3ccc([N+](=O)[O-])cc3)n2C)cc1 | FYN
CCOc1ccc(Nc2nc(Cc3nnc(SCc4cccnc4)n3CC)cs2)cc1 | CHEK2; also recorded: AURORA-A
CC1=CC(C)=NCN1SCc1nnc(SCc2ccc([N+](=O)[O-])cc2)n1Cc1ccco1 | LYNA
CCn1c(CNc2ccc(OC)cc2)nnc1SCc1c(F)cccc1Cl | PDGFRR-α and FYN and FLT-3
Cn1c(CNc2ccc(F)cc2)nnc1SCc1c(Cl)cccc1Cl | GSK3-β; also recorded: GSK3-α
CCn1c(CNc2ccc(C)cc2)nnc1SCc1ccc(Cl)c(Cl)c1 | AURORA-A; also recorded: CDK2-cyclinE
CCn1c(CNc2ccc(OC)cc2)nnc1SCc1ccc(Cl)cc1 | PDGFRR-α and FYN(
COc1ccc(NCc2nnc(SCc3ccc(Cl)cc3)n2-c2ccccc2)cc1 | PDGFRR-α and FYN
Cc1ccc(NCc2nnc(SCc3ccc(C(C)(C)C)cc3)n2-c2ccc(C)cc2)cc1 | AURORA-A and SYK
COc1ccccc1-n1c(SC(C)C(=O)NCc2ccco2)nnc1-c1ccccc1 (centres unmarked) | AKT1
CCOC(=O)c1ccc(CSc2nnc(Cc3ccc(OC)cc3)[nH]2)o1 | FLT-3
CCOC(=O)c1ccc(CSc2nnc(-c3ccc([N+](=O)[O-])cc3)[nH]2)o1 | AURORA-A

Other lines, results leading:

protein kinase against which the compound exhibits inhibitory activity (Table 3) | SMILES
GSK3-α | COc1ccc(-n2c(SCc3nnc(-c4ccccc4)o3)nnc2-c2ccncc2)cc1
CDK1 | Cc1cc(C)nc(SCc2nnc(SCc3ccccc3)n2Cc2ccco2)n1
CDK1 | COc1ccc(-n2c(CNc3cc(C(F)(F)F)ccc3Cl)nnc2SCc2ccccc2Cl)cc1
GSK3-β; also recorded: GSK3-α | Cc1ccc(-n2c(SCc3nnc(-c4ccccc4)o3)nnc2-c2ccncc2)cc1
CDK2-cyclinE | CCn1c(COc2ccccc2OC)nnc1SCc1ccc(Cl)cc1
GSK3-β; also recorded: GSK3-α | CN1C=NN(c2cc3ccccc3cc2O)C1SCc1nnc(-c2ccccc2)o1 (centres unmarked)
CDK1 | COCCCn1c(SCc2ccccc2Cl)nnc1-c1ccc(C(C)(C)C)cc1
LCK | Clc1cccc(NCc2nnc(SCc3ccccc3Cl)n2-c2ccccc2)c1
LCK | Clc1cccc(NCc2nnc(SCc3ccc(Cl)cc3Cl)n2-c2ccccc2)c1
AURORA-A | CCn1c(SCc2cc(=O)[nH]c3ccccc23)nnc1-c1cc2ccccc2cc1O
GSK3a | Cn1c(COc2ccccc2)nnc1SCc1cc(=O)[nH]c2ccccc12
PDGFRR-α and FLT-3 and FYN | COc1ccc(N)cc1Cc1nnc(SCc2c(Cl)cccc2Cl)n1-c1ccccc1
AURORA-A | COc1ccccc1-n1c(SCC(=O)Nc2cc(NC(=O)c3ccco3)ccc2C)nnc1-c1ccccc1O
LCK | Cc1ccc(S(=O)(=O)N(Cc2nnc(SCc3ccc(Cl)cc3Cl)n2-c2ccccc2)c2cccc(Cl)c2)cc1
AURORA-A | Cc1ccc(NCc2nnc(SCc3nnc(-c4ccccc4)o3)n2Cc2ccco2)c(C)c1
PDGFRR-α and MSK2 | Cc1cccc(NCc2nnc(SCc3ccc(Cl)cc3)n2-c2ccccc2)c1
PDGFRR-α and FLT-3 and FYN | COc1ccc(NCc2nnc(SCc3ccccc3)n2-c2ccc(OC)cc2)cc1
AURORA-A | Cc1ccc(NCc2nnc(SCc3ccccc3)n2C)cc1
GSK3-α | CCN(CC)S(=O)(=O)c1ccc(-c2nnc(SCc3nnc(-c4ccccc4)o3)n2CC)cc1
